The results in this text go back to patent US12144788B2, “Visual cycle modulators” (CASE WESTERN RESERVE UNIVERSITY, priority 2017, dated 2024).

The subject of data set [1] is visual chromophore regeneration in C57BL6J mouse eyes. Kind of data set: visual chromophore recovery assay (ocular 11-cis-retinal by HPLC after bleach). It is filed as in vivo. As to conditions: for visual chromophore regeneration: 10 μg/mouse oral gavage 24 h before light exposure (95% bleach), 6 h dark adaptation; for effect on 11-cis-retinal recovery / visual cycle function: 500 μg (0.5 mg/mouse) oral gavage 24 h before light exposure. As for the experimental part:
FIG. 4 illustrates inhibition of visual chromophore regeneration in C57BL6J mouse eyes by MB compounds. The MB drugs were administrated to mice by oral gavage 24 h prior to light exposure for 10 min. Then all mice recovered under darkness for 6 h.
(§1) Abca4^−/−Rdh8^−/− mice on a C57BL/6J background were generated as previously described. Male and female WT mice with C57BL/6J backgrounds were obtained from The Jackson Laboratory. Abca4^−/−Rdh8^−/− mice used in this study were homozygous for the Leu450 allele of Rpe65 as determined by a genotyping protocol published previously and free of Crb1/rd8 and rd/rd mutations Animals were housed either in the animal facility at the Case Western Reserve University School of Medicine, where they received a standard chow diet (LabDiet 5053) and were maintained under a 12-h light (˜300 lux) and 12-h dark cycle or at the Cole Eye Institute animal facility where they were. Mice were dark adapted overnight prior to all experiments. A cohort of Rdh8^−/−Abca4^−/− or C57BL/6J mice was used when they reached the age of 1 to 2 months, and both sexes were used evenly. All tested primary amines were suspended in 100 μl soybean oil with less than 10% (v/v) DMSO and were administered by oral gavage with a 22-gauge feeding needle. Experimental manipulations in the dark were done under dim red light transmitted through a Kodak No. 1 Safelight Filter (transmittance >560 nm).
After bright light exposure resulting in photoactivation of 95% of rhodopsin, mice were kept in the dark for 6 h. Then, the animals were euthanized and their eyes were collected and homogenized in 10 mM sodium phosphate buffer, pH 7.4, containing 50% methanol (v/v) and 40 mM hydroxylamine. The resulting mixture was extracted with 4 ml of hexanes.
Next, we tested the effects of the MB compound series on retinoid cycle function in the living mouse. […] After the light treatment, mice were allowed to dark adapt for 6 h before their ocular retinoid content was determined by HPLC. […] To examine the possibility that the lack of MB-008 efficacy at 24 h was due to insufficient concentrations resulting from a shorter elimination half-life or poorer bioavailability, we repeated the experiment with the mice subjected to light exposure 4 h after MB-008 administration. A 100 μg dose of MB-008 suppressed visual chromophore regeneration by ˜80%, supporting the idea that the retinal concentration of MB-008 could be sub-effective at the longer post-treatment light challenge.

The next data set deals with RPE65 (Bos taurus, UniProt Q28175). Kind of data set: in vitro retinoid isomerase activity assay with bovine RPE microsomes. As to conditions: for times more potent compared to emixustat (racemic): RPE65 inhibition, bovine RPE microsomes; for inhibition against retinoid isomerization: up to concentrations of 50 μM.
Sequence of RPE65 (Q28175 whole entry): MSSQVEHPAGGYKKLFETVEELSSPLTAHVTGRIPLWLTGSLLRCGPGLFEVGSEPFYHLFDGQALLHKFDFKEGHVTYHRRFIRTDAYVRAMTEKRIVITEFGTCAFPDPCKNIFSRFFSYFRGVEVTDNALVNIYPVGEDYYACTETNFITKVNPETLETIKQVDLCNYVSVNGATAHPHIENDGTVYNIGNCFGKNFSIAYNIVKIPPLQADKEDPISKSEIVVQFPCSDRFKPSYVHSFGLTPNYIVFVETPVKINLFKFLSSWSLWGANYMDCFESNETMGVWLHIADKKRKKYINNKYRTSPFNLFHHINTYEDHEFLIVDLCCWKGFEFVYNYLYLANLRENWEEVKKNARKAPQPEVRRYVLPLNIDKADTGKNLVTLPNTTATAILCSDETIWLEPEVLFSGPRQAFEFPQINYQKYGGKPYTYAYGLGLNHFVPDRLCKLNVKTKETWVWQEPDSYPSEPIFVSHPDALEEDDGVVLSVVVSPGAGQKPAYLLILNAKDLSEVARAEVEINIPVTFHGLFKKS
For another data set, the system named is Abca4−/−Rdh8−/− mice. Briefly: protection against light-induced retinal degeneration (OCT, ONL thickness). In kind it is in vivo, mouse. As for the experimental part: FIGS. 7(A-B) illustrate protective effects of MB compounds against light-induced retinal degeneration in Abca4^−/−Rdh8^−/− mice. Drugs were administrated at the indicated doses to 4-6 week-old Abca4^−/−Rdh8^−/− mice (weight ˜20 g) by oral gavage. After a 24 h dark adaptation, mice were exposed to 10,000 lux light for 30 min and then returned to a dark environment for 3 days. (A) Representative OCT images of mice treated with MB compounds. A dramatic decrease in the ONL indicates advanced retinal degeneration. The black scale beside the DMSO image represents 50 μm. (B) Retinal protective effects exerted by MB compounds as quantified by average ONL thickness. Only non-scattering ONL layers were measured. For images in which the ONL layer boundary was obscured due to light scattering, the ONL length was recorded as 0 μm. Error bars represent standard deviations; n=3-5 for each group.
as §1
After dark adaptation for 24 h, Abca4^−/−Rdh8^−/− mice with pupils dilated by 1% tropicamide were exposed to fluorescent light (10,000 lux; 150 W spiral lamp; Commercial Electric) for 30 min in a white paper bucket (Papersmith) and then kept in the dark for an additional 3 days. Development of retinal degeneration was then determined by ultra-high-resolution spectral domain OCT (SD-OCT; Bioptigen) and ERG as previously described.
To examine the ability of […] cause retinal damage in the absence of treatment with protective agents. Three days later retinas were imaged in vivo by optical coherence tomography, with preservation of outer nuclear layer thickness and light scattering properties serving as markers for retinal health. MB-001, which is capable of preventing light-induced retinal degeneration through both direct RPE65 inhibition as well as retinal sequestration served as a positive control for these experiments.

For a further data set, the system named is C57BL/6J mice. Kind of data set: in vivo dark-adapted ERG recordings after bleach. Also on record: species or system mouse. As to conditions: gavage 1 day before bleach, doses indicated effective by retinoid analysis. Here is the method: FIG. 5 illustrates ERG responses of mice treated with visual cycle modulators. Oral gavage was used to administer vehicle or MB compounds to mice 24 h prior to 10 min light exposure followed by 6 h of dark adaptation. Dark-adapted ERGs were obtained to strobe flash stimuli.
C57BL/6J mice aged 1.5-4 months were anesthetized with ketamine (80 mg/kg) and xylazine (16 mg/kg) after overnight dark adaptation. Mydriatic eye drops were used to dilate the pupil (1% tropicamide; 2.5% phenylephrine). ERGs were obtained using an active electrode that contacted the corneal surface; needle electrodes placed in the cheek and tail provided reference and ground leads, respectively. Strobe stimuli were presented to the dark-adapted eye in an LKC (Gaithersburg, MD) ganzfeld. Responses were amplified, averaged and stored using an LKC UTAS E-3000 signal averaging system.
Baseline dark-adapted ERGs were recorded from each mouse. After a minimum 1 day interval, MB compounds or vehicle were administered by gavage at 9 a.m. The next morning, mydriatic eye drops were used to dilate the pupils and mice were then exposed to a 10-minute 10,000 lux bleach. Mice were dark-adapted for 6 hours, after which ERGs were recorded.
We next examined the impact of these compounds on retinal function, measured using the electroretinogram (ERG). FIG. 5 presents a family of dark-adapted ERGs measured 6 hours after mice underwent a 95% bleach presented 1 day following gavage administration of vehicle or MB compound molecules at doses indicated to be effective by retinoid analysis. […] In comparison, mice administered with MB compound molecules had had reduced amplitude ERGs indicative of incomplete bleaching recovery. […] In response to higher luminance stimuli, reproducible responses were observed. That these reflect dark-adapted cone-mediated responses is supported by their similarity to responses obtained from transducin KO mice which lack rod-mediated activity, while retaining normal cone-mediated responses, and have a very similar ERG phenotype.

Data set [2] is described as follows: identification of atRAL Schiff base conjugates with MB compounds in mouse eyes. It is filed as in vivo. As to conditions: Abca4−/−Rdh8−/− mice, 50 mg/kg oral gavage, bright light exposure 10 min; mass spectrometry versus standards. Here is the method: FIGS. 6(A-B) illustrate identification of retinal Schiff base conjugates in Abca4^−/− Rdh8^−/− mice treated with MB-005 and MB-006. Following drug administration, mice were exposed to intense light for 10 min. After a 30 min recovery under darkness, animals were sacrificed and retinoids were extracted from the eyes. (A, B) Shown in the top panels are selective ion chromatograms for MB-005-retinal conjugates (A, at m/z=572.6) and MB-006-retinal conjugates (B, at m/z=588.6). Panels on the bottom show the mass spectra of the peaks coinciding with the retention times of their authentic standards. The insets display the MS/MS fragmentation patterns of the two imines, which were identical to the corresponding standards.
MB-005 or MB-006 (50 mg/kg) were administrated by oral gavage to Abca4^−/−Rdh8^−/− mice 24 h prior to light exposure. After exposure to fluorescent light for 10 min, animals were euthanized and their eyes were collected and homogenized in acetonitrile. After centrifugation, the supernatant was concentrated to 400 μl under vacuum. […]
With the effects of these compounds on visual cycle function established we next sought to examine their ability to form retinal-Schiff base conjugates in vivo. […] Retinoids were extracted and analyzed by mass spectrometry. […]

[3] abbreviates: 1 mg per mouse oral gavage 24 h before light.

Method for RPE65: Primary amines were pre-incubated with bovine RPE microsomes at room temperature for 5 min, then all-trans-retinol was added and the mixtures were incubated at 37° C. All incubation mixtures were quenched by the addition of methanol after 1 h of incubation. Inhibition of RPE65 enzymatic activity was measured as a decline in 11-cis-retinol production.
Synthesized primary amine (1 μl in DMF, with the final concentration ranging between 50 nM and 50 μM) was added to 10 mM Bis-Tris propane/HCl buffer, pH 7.4, containing 150 μg RPE microsomes, 1% BSA, 1 mM disodium pyrophosphate, and 20 μM aporetinaldehyde-binding protein 1 (CRALBP). The resulting mixture was pre-incubated at room temperature for 5 min. Then, all-trans-retinol (1 μl in DMF, at a final concentration of 20 μM) was added. The resulting mixture was incubated at 37° C. for 1 h. The reaction was quenched by adding 300 μl methanol, and products were extracted with 300 μl hexanes. Production of 11-cis-retinol was quantified by normal-phase HPLC with 10% (v/v) EtOAc in hexanes as the eluent at a flow rate of 1.4 ml/min. Retinoids were detected by monitoring their absorbance at 325 nm and quantified based on a standard curve representing the relationship between the amount of synthetic 11-cis-retinol standard and the area under the corresponding chromatographic peak.
To test these structural predictions, we examined the inhibitory activity of the compounds against RPE65 activity in an in vitro retinoid isomerase assay using bovine RPE microsomes as the enzyme source.

Take `CCCC(CCO)COc1cccc(C(O)CCN)c1` (mixture of isomers) [MB-008, 3-((3-(3-Amino-1-hydroxypropyl)phenoxy)methyl)hexan-1-ol]: the visual chromophore regeneration result in data set [1] is recorded as “recovered visual chromophore to a level comparable to vehicle-treated mice”. The “suppression of visual chromophore regeneration” value in data set [1] (100 μg dose, light exposure 4 h after administration) is about 80%. Also, the “suppression in visual cycle function” value in data set [1] (ten-fold higher dose than 10 μg, oral gavage 24 h before light exposure, 6 h dark) is 30%. On RPE65, half-maximal inhibition (IC50) was put at 189 ± 31 nM and the “times more potent compared to emixustat (racemic)” value is about 1.2 times. Besides, the “protection against light-induced retinal degeneration” value in the data set with Abca4−/−Rdh8−/− mice (doses as high as 0.25 mg, administered 24 h prior to the light challenge) is listed as “poorly protective”. Moreover, the “effect of shortening the duration between administration and light challenge on protection” value in the data set on Abca4−/−Rdh8−/− mice (from 24 to 6 h) is “substantially improved the protective effects”. In addition, the “protection against light-induced retinal degeneration” value in the data set with Abca4−/−Rdh8−/− mice (shorter time period (6 h), dose ten-times higher than that used for MB-004) is given as “full protection”.

On to `CC1=C(COc2cccc([C@H](O)CCN)c2)C(C)(C)CCC1` [MB-001, reference compound], for which the “dark-adapted ERG 6 hours after 95% bleach” value with C57BL/6J mice is “responses to low luminance stimuli that were not different from background noise levels”. Moreover, the “protection against light-induced retinal degeneration” value in the data set on Abca4−/−Rdh8−/− mice (50 μg oral gavage 24 h before light, positive control) is “fully protective”.

`CCCC(CCC)COc1cccc([C@H](O)CCN)c1` [MB-004]: in data set [1], the visual chromophore regeneration entry was “dramatically suppressed visual chromophore regeneration”. At RPE65, the IC50 was 106 ± 16 nM and the “times more potent compared to emixustat (racemic)” value is “approximately 2.2 times”. The “dark-adapted ERG 6 hours after 95% bleach” value in the data set with C57BL/6J mice was “responses to low luminance stimuli that were not different from background noise levels”. The “protective effect relative to MB-001” value in the data set on Abca4−/−Rdh8−/− mice (25 μg oral gavage 24 h before 10,000 lux light, OCT 3 days later) is “approximately 80%”.

Take `CC(C)c1cc(OCC2CCCCC2)cc(C(O)CCN)c1` (stereo not drawn) [MB-006, 3-Amino-1-(3-(cyclohexylmethoxy)-5-isopropylphenyl)propan-1-ol]: the “effect on 11-cis-retinal recovery / visual cycle function” value in data set [1] (6 h dark) is given as “strongly suppressed visual cycle function”. In addition, the figures for the “visual chromophore production, % of the vehicle control” value in data set [1] (500 μg oral gavage 24 h before light exposure) and in data set [1] (1000 μg oral gavage 24 h before light exposure) were about 30% and about 20%, respectively. Also, the “inhibition against retinoid isomerization” value against RPE65 is recorded as “minimal or no inhibition”. Also, the “dark-adapted ERG 6 hours after 95% bleach” value with C57BL/6J mice is reported as “less incomplete recovery”. Besides, the “protection against light-induced retinal degeneration” value in the data set on Abca4−/−Rdh8−/− mice (0.5 mg per mouse oral gavage 24 h before light) is listed as “not”; with Abca4−/−Rdh8−/− mice (setting [3]), “protective”. Moreover, the “retinal Schiff base adducts in eye extracts” value in data set [2] was “contained compounds matching the expected molecular weight of the respective Schiff base adducts”.

In the case of `CC1=C(COc2cc(C(C)C)cc(C(O)CCN)c2)C(C)(C)CCC1` (stereo not drawn) [MB-007, 3-Amino-1-(3-isopropyl-5-((2,6,6-trimethylcyclohex-1-en-1-yl)methoxy)phenyl)propan-1-ol], the “effect on 11-cis-retinal recovery / visual cycle function” value in data set [1] (6 h dark) is “minimal effects”. The “inhibition of 11-cis-retinal recovery (suppression of visual chromophore regeneration)” value in data set [1] (two-fold higher dose than 500 μg (1 mg per mouse), oral gavage 24 h before light exposure) was about 50%. Also, the “inhibition against retinoid isomerization” value against RPE65 is listed as “minimal or no inhibition”. The “protection against light-induced retinal degeneration” value in the data set on Abca4−/−Rdh8−/− mice (setting [3]) is listed as “no more protective than vehicle control”.
